Data from patent publication US11635434B2, “Betaretrovirus epitopes and related methods of use” (priority 2018, dated 2023).

Test system: intrahepatic lymphocytes (IHL)
Assay: IFN-γ ELISPOT of intrahepatic lymphocytes stimulated with individual HBRV peptides
Type: cell-based, human
From the text: We isolated intrahepatic lymphocytes (IHL) to increase the likelihood of finding HBRV reactive lymphocytes (FIG. 3). IHL were extracted from 5 PBC subjects and 4 LT controls, as described^58 (FIG. 4B). ELISPOT was employed to detect IFN-γ spot forming colonies (SFC) using 100,000 IHL per reaction. Individual peptides from HBRV GAG and Env (immunosuppressive domains (ISD) peptides removed) were used to perform 140 analyses per sample with […] as positive and no stimulus as negative control. We found 15 GAG and 21 Env peptides that produced SFC above background levels (FIG. 6A).
Cellular immune responses have been found using pooled peptides of the HBRV Gag (n=58) and Env (n=85) proteins. […] In order to characterize immunodominant HBRV epitopes, we screened intra-hepatic lymphocytes (IHL) from PBC subjects and control subjects for evidence of IFNg production. Methods: IHL were isolated from liver transplant recipients with PBC (n=5) and other hepatic disorders (n=4). IHL were individually stimulated with 15-mer peptides from HBRV Gag or Env proteins (n=144) or the characterized CD8+ reactive epitope to pyruvate dehydrogenase-E2 (PDH-E2). ELISpot was used to measure spot forming colonies (SFC) producing IFN-g.

TIYLGGSPDFHGFRNMSG [Env 17] was tested, and the “number of PBC subjects whose IHL were reactive (IFN-γ producing)” value (5 PBC subjects) was 1 and the “SFC level in the reactive PBC subject's IHL” value (FIG. 6A) was < 50 SFC.
